Like-named read-outs stand apart in the source and are kept apart here.
Molecular target: Nav 1.7 (Homo sapiens (Human), UniProt Q15858)
Experiment: in-vitro Nav 1.7 PX (IC50)
Assay type: cell-based
[1] = in-vitro Nav 1.7 PX data (PatchXpress)

Nav 1.7, sequence (Q15858 whole entry): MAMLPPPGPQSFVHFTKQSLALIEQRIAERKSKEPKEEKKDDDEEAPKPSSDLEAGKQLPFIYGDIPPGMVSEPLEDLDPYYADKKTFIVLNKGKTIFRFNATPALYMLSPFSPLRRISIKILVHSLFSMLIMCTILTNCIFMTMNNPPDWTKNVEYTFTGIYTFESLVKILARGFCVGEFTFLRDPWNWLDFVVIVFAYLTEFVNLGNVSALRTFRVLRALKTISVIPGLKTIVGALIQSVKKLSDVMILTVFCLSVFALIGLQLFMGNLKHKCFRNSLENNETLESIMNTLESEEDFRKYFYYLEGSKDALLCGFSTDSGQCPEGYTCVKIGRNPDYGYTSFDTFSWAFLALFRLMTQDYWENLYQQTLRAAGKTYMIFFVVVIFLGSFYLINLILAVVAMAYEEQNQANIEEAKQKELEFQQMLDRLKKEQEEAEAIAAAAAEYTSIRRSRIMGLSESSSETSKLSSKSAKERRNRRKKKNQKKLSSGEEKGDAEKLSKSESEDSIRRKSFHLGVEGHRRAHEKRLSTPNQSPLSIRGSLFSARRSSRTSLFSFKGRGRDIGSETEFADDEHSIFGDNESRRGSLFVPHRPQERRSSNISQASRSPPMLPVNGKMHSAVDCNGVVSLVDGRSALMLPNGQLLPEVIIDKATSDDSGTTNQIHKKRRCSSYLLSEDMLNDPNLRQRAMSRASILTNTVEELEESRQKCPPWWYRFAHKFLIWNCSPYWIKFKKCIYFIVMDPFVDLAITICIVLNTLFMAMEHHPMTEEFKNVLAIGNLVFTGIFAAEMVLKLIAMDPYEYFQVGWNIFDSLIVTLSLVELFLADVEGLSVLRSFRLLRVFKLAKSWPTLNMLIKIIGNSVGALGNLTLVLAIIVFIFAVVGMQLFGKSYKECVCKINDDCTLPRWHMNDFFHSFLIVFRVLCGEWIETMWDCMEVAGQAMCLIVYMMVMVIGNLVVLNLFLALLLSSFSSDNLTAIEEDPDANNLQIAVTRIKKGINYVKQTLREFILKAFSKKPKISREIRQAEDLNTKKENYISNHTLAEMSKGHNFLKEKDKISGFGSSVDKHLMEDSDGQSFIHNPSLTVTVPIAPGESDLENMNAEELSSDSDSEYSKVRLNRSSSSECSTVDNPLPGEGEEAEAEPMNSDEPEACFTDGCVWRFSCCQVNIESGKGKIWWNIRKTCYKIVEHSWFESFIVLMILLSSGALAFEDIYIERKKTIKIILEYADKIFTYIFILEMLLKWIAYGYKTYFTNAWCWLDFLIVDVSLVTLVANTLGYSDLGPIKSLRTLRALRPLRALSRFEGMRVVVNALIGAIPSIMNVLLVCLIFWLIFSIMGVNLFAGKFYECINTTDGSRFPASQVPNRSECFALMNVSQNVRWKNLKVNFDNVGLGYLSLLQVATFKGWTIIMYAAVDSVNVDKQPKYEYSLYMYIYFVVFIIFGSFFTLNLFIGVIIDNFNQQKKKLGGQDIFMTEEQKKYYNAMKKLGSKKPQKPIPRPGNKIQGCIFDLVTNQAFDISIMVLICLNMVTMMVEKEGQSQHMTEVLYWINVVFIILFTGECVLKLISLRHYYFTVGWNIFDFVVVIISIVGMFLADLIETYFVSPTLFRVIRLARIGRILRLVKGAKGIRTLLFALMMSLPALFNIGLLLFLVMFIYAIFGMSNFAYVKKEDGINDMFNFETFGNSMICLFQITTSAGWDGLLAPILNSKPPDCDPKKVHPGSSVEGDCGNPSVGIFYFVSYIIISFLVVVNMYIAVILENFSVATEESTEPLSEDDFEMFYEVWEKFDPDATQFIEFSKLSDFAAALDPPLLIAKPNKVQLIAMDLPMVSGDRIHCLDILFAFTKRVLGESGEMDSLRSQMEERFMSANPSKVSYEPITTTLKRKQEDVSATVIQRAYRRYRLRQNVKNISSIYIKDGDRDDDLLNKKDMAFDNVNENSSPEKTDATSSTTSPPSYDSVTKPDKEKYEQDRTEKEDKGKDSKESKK

Row | SMILES | IC50 (in-vitro Nav 1.7 PX data) | IC50 | further results
1 | COc1cc(-c2cccc(OC(C)C)c2)ccc1-n1c(=O)ccc2cc(S(=O)(=O)Nc3ncccn3)ccc21 [Example 828, 1-(3-methoxy-3′-(1-methylethoxy)-4-biphenylyl)-2-oxo-N-2-pyrimidinyl-1,2-dihydro-6-quinolinesulfonamide] | 613 nM | – | –
2 | COc1nc(OCc2ccc(F)cc2F)c(Cl)cc1-n1c(=O)ccc2cc(S(=O)(=O)Nc3ccon3)ccc21 [Example 1213, 1-(5-chloro-6-((2,4-difluorobenzyl)oxy)-2-methoxy-3-pyridinyl)-N-3-isoxazolyl-2-oxo-1,2-dihydro-6-quinolinesulfonamide] | – | 172 nM | –
3 | COc1cc(-c2cc(Cl)cnc2OC)c(F)cc1-n1c(=O)ccc2cc(S(=O)(=O)Nc3ncco3)ccc21 [Example 776, 1-(4-(5-chloro-2-methoxy-3-pyridinyl)-5-fluoro-2-methoxyphenyl)-N-1,3-oxazol-2-yl-2-oxo-1,2-dihydro-6-quinolinesulfonamide] | 54 nM | – | –
4 | COc1cc(-c2cccc(OC)c2Cl)ccc1-n1c(=O)ccc2cc(S(=O)(=O)Nc3ccon3)ccc21 [Example 782, 1-(2′-chloro-3,3′-dimethoxy-4-biphenylyl)-N-3-isoxazolyl-2-oxo-1,2-dihydro-6-quinolinesulfonamide] | 87 nM | – | –
5 | COc1cc(-c2cccc(C(F)(F)F)c2)c(F)cc1-n1c(=O)ccc2cc(S(=O)(=O)Nc3cccc(F)n3)ccc21 (atropisomer, axis not shown; (P)) [Example 1209, (P)-1-(2-fluoro-5-methoxy-3′-(trifluoromethyl)-4-biphenylyl)-N-(6-fluoro-2-pyridinyl)-2-oxo-1,2-dihydro-6-quinolinesulfonamide] | – | 75 nM | –
6 | COc1cc(-c2cc(OC)c(-n3c(=O)ccc4cc(S(=O)(=O)Nc5ncco5)ccc43)cc2F)ccc1Cl [Example 1040, 1-(4′-chloro-2-fluoro-3′,5-dimethoxy-4-biphenylyl)-N-1,3-oxazol-2-yl-2-oxo-1,2-dihydro-6-quinolinesulfonamide] | – | – | IC50 [1]: 31 nM
7 | COc1cc(Br)c(F)cc1-n1c(=O)ccc2cc(S(=O)(=O)Nc3cc(OCC4CC4)ncn3)ccc21 (atropisomer, axis not shown; (P)) [Example 1183, (P)-1-(4-bromo-5-fluoro-2-methoxyphenyl)-N-(6-(cyclopropylmethoxy)-4-pyrimidinyl)-2-oxo-1,2-dihydro-6-quinolinesulfonamide] | – | 2610 nM | –
8 | COc1cc(-c2cccc(OC)c2F)c(F)cc1-n1c(=O)ccc2cc(S(=O)(=O)Nc3ccon3)ccc21 [Example 734, 1-(2,2′-difluoro-3′,5-dimethoxy-4-biphenylyl)-N-3-isoxazolyl-2-oxo-1,2-dihydro-6-quinolinesulfonamide] | 81 nM | – | –
9 | COc1cc(Br)c(F)cc1-n1c(=O)ccc2cc(S(=O)(=O)Nc3cccc(C)n3)ccc21 [Example 989, 1-(4-bromo-5-fluoro-2-methoxyphenyl)-N-(6-methyl-2-pyridinyl)-2-oxo-1,2-dihydro-6-quinolinesulfonamide] | 8610 nM | – | –
10 | COc1cc(-c2cc(Cl)cc(C#N)c2)c(F)cc1-n1c(=O)ccc2cc(S(=O)(=O)Nc3ccon3)ccc21 (atropisomer, axis not shown; (P)) [Example 518, (P)-1-(3′-chloro-5′-cyano-2-fluoro-5-methoxy-4-biphenylyl)-N-3-isoxazolyl-2-oxo-1,2-dihydro-6-quinolinesulfonamide] | – | – | IC50 (in-vitro PatchXpress (PX)): 2000 nM
11 | COc1cc(C#CC2(F)CCCC2)c(F)cc1-n1c(=O)ccc2cc(S(=O)(=O)Nc3ccon3)ccc21 (atropisomer, axis not shown; (P)) [Example 1153, (P)-1-(5-fluoro-4-((1-fluorocyclopentyl)ethynyl)-2-methoxyphenyl)-N-3-isoxazolyl-2-oxo-1,2-dihydro-6-quinolinesulfonamide] | – | 35 nM | –
12 | COc1cc(-c2cccc(OC(F)F)c2)c(F)cc1-n1c(=O)ccc2cc(S(=O)(=O)Nc3cc(C)ncn3)ccc21 (atropisomer, axis not shown; (P)) [Example 1173, (P)-1-(3′-(difluoromethoxy)-2-fluoro-5-methoxy-4-biphenylyl)-N-(6-methyl-4-pyrimidinyl)-2-oxo-1,2-dihydro-6-quinolinesulfonamide] | – | 146 nM | –
13 | COc1ccc(-c2ccc(Cl)c(C)c2)cc1-n1c(=O)ccc2cc(S(=O)(=O)Nc3ccon3)ccc21 [Example 875, 1-(4′-chloro-4-methoxy-3′-methyl-3-biphenylyl)-N-3-isoxazolyl-2-oxo-1,2-dihydro-6-quinolinesulfonamide] | 15 nM | – | –
14 | COc1cc(C)ccc1-c1cc(OC)c(-n2c(=O)ccc3cc(S(=O)(=O)Nc4ccon4)ccc32)cc1F [Example 793, 1-(2-fluoro-2′,5-dimethoxy-4′-methyl-4-biphenylyl)-N-3-isoxazolyl-2-oxo-1,2-dihydro-6-quinolinesulfonamide] | 48 nM | – | –
15 | COc1nc(OC2CCC2)c(Cl)cc1-n1c(=O)ccc2cc(S(=O)(=O)Nc3ccon3)ccc21 [Example 821, 1-(5-chloro-6-(cyclobutyloxy)-2-methoxy-3-pyridinyl)-N-3-isoxazolyl-2-oxo-1,2-dihydro-6-quinolinesulfonamide] | 4660 nM | – | –
16 | COc1cc(-c2cccc(C3CC3)c2)ccc1-n1c(=O)ccc2cc(S(=O)(=O)Nc3ccon3)ccc21 [Example 788, 1-(3′-cyclopropyl-3-methoxy-4-biphenylyl)-N-3-isoxazolyl-2-oxo-1,2-dihydro-6-quinolinesulfonamide] | 6 nM | – | –
17 | CCOc1cccc(-c2cc(OC)c(-n3c(=O)ccc4cc(S(=O)(=O)Nc5ncccn5)ccc43)cc2C)c1 [Example 963, 1-(3′-ethoxy-5-methoxy-2-methyl-4-biphenylyl)-2-oxo-N-2-pyrimidinyl-1,2-dihydro-6-quinolinesulfonamide] | 27 nM | – | –
18 | COc1cc(-c2ccc(F)cc2)c(F)cc1-n1c(=O)ccc2cc(S(=O)(=O)Nc3cccnn3)ccc21 [Example 770, 1-(2,4′-difluoro-5-methoxy-4-biphenylyl)-2-oxo-N-3-pyridazinyl-1,2-dihydro-6-quinolinesulfonamide] | 33 nM | – | –
19 | O=c1ccc2cc(S(=O)(=O)Nc3ncns3)ccc2n1-c1ccc(-c2cc(F)cc(F)c2)cc1C1CC1 [Example 1048, 1-(3-cyclopropyl-3′,5′-difluoro-4-biphenylyl)-2-oxo-N-1,2,4-thiadiazol-5-yl-1,2-dihydro-6-quinolinesulfonamide] | – | – | IC50 [1]: 15 nM
20 | Cc1cc(-c2cc(C)c(-n3c(=O)ccc4cc(S(=O)(=O)Nc5ncccn5)ccc43)cc2F)ccc1Cl (atropisomer, axis not shown; (P)) [Example 649] | 49 nM | – | –
21 | COc1cc(-c2cccc(F)c2)c(Cl)cc1-n1c(=O)ccc2cc(S(=O)(=O)Nc3cccnn3)ccc21 (atropisomer, axis not shown; (M)) [Example 468, (M)-1-(2-chloro-3′-fluoro-5-methoxy-[1,1′-biphenyl]-4-yl)-2-oxo-N-(pyridazin-3-yl)-1,2-dihydroquinoline-6-sulfonamide] | – | 7000 nM | –
22 | COc1cc(CC2CCCCC2)c(F)cc1-n1c(=O)ccc2cc(S(=O)(=O)Nc3ncc(F)cn3)ccc21 [Example 1111, 1-(4-(cyclohexylmethyl)-5-fluoro-2-methoxyphenyl)-N-(5-fluoro-2-pyrimidinyl)-2-oxo-1,2-dihydro-6-quinolinesulfonamide] | 88 nM | – | –
23 | O=c1ccc2cc(S(=O)(=O)Nc3ccon3)ccc2n1[C@@H]1CC[C@@H](c2cccc(F)c2)C1 [Example 1143, 1-((1R,3R)-3-(3-fluorophenyl)cyclopentyl)-N-3-isoxazolyl-2-oxo-1,2-dihydro-6-quinolinesulfonamide, 1-((1R,3S)-3-(3-fluorophenyl)cyclopentyl)-N-3-isoxazolyl-2-oxo-1,2-dihydro-6-quinolinesulfonamide, 1-((1S,3R)-3-(3-fluorophenyl)cyclopentyl)-N-3-isoxazolyl-2-oxo-1,2-dihydro-6-quinolinesulfonamide, 1-((1S,3S)-3-(3-fluorophenyl)cyclopentyl)-N-3-isoxazolyl-2-oxo-1,2-dihydro-6-quinolinesulfonamide] | – | 8910 nM | –
24 | COc1cc(-c2cccc(C(F)(F)F)c2)ccc1-n1c(=O)cnc2cc(S(=O)(=O)Nc3ncccn3)ccc21 [Example 1200, 1-(3-methoxy-3′-(trifluoromethyl)-4-biphenylyl)-2-oxo-N-2-pyrimidinyl-1,2-dihydro-6-quinoxalinesulfonamide] | – | 78 nM | –
25 | O=c1ccc2cc(S(=O)(=O)Nc3ncns3)ccc2n1-c1ccc(-c2cc(F)cc(F)c2)cc1C1CC1 [Example 1049, 1-(3-cyclopropyl-3′,5′-difluoro-4-biphenylyl)-2-oxo-N-1,2,4-thiadiazol-5-yl-1,2-dihydro-6-quinolinesulfonamide] | – | – | IC50 [1]: 912 nM
26 | COc1cc(-c2ccc(Cl)c(C)c2)ccc1-n1c(=O)cnc2cc(S(=O)(=O)Nc3ncccn3)ccc21 [Example 1199, 1-(4′-chloro-3-methoxy-3′-methyl-4-biphenylyl)-2-oxo-N-2-pyrimidinyl-1,2-dihydro-6-quinoxalinesulfonamide] | – | 127 nM | –
27 | COc1nc(O[C@H]2CCCC[C@H]2C)c(Cl)cc1-n1c(=O)ccc2cc(S(=O)(=O)Nc3ccon3)ccc21 [Example 1224, 1-(5-chloro-2-methoxy-6-(((1S,2R)-2-methylcyclohexyl)oxy)-3-pyridinyl)-N-3-isoxazolyl-2-oxo-1,2-dihydro-6-quinolinesulfonamide] | – | 88 nM | –
28 | COc1cc(-c2cc(C)ccc2F)c(C)cc1-n1c(=O)ccc2cc(S(=O)(=O)Nc3ncccn3)ccc21 [Example 970, 1-(2′-fluoro-5-methoxy-2,5′-dimethyl-4-biphenylyl)-2-oxo-N-2-pyrimidinyl-1,2-dihydro-6-quinolinesulfonamide] | 24 nM | – | –
29 | COc1cc(Cl)cc(-c2cc(OC)c(-n3c(=O)ccc4cc(S(=O)(=O)Nc5cccnn5)ccc43)cc2F)c1 [Example 930, 1-(3′-chloro-2-fluoro-5,5′-dimethoxy-4-biphenylyl)-2-oxo-N-3-pyridazinyl-1,2-dihydro-6-quinolinesulfonamide] | 14 nM | – | –
30 | CO[C@H]1CCCC[C@@H]1n1c(=O)ccc2cc(S(=O)(=O)Nc3ncns3)ccc21 (racemic) [Example 1145, (±)-1-((1S,2S)-2-methoxycyclohexyl)-2-oxo-N-1,2,4-thiadiazol-5-yl-1,2-dihydro-6-quinolinesulfonamide] | – | 471 nM | –
